The nature of the test: DPPH radical scavenging antioxidant test. The following applies: 517 nm; for Inhibition (radical scavenging inhibition): 0.2 mL DPPH (0.75 mM), compound 3 μM in ethanol, 30 minutes in the dark. The class given is biochemical. How it is done: The antioxidant activity of 6′-(2-bromophenyl)-2′-methoxy-3,4′-bipyridine-3′-carbonitrile was investigated by 2,2-diphenyl-1-picrylhydrazyl (DPPH) in vitro tests that employ vitamin C as the positive control.
The antioxidant properties of the 6′-(2-bromophenyl)-2′-methoxy-3,4′-bipyridine-3′-carbonitrile compound were studied by adding 0.2 mL DPPH (0.75 mM)) to 6′-(2-bromophenyl)-2′-methoxy-3,4′-bipyridine-3′-carbonitrile (3 μM) (4) in ethanol. After 30 minutes of incubation in the dark, the absorbance was read against a blank at 517 nm. Ascorbic acid (vitamin C) was used as standard antioxidants (positive control). A blank sample was prepared by 0.2 mL of DPPH in 3 mL ethanol. A negative control sample was run using ethanol instead of the sample. The radical scavenging inhibition was calculated using the following equation: […]
The antioxidant activity for the synthesized compound is listed in Table 1, using Vitamin C as a reference.

In the case of `COc1nc(-c2ccccc2Br)cc(-c2cccnc2)c1C#N` [Product 4, 6′-(2-bromophenyl)-2′-methoxy-3,4′-bipyridine-3′-carbonitrile], the “Inhibition (radical scavenging inhibition)” value was found to be 50%. Besides, the “antioxidant potential compared to vitamin C (in words)” value (DPPH in vitro test, vitamin C as positive control) is reported as “high potential as an antioxidant”.
`O=C1O[C@H]([C@@H](O)CO)C(O)=C1O` [vit c, Ascorbic acid, reference compound]: the “Inhibition (radical scavenging inhibition)” value was 74%.

The values are drawn from patent US11925630B1, “6′-(2-bromophenyl)-2′-methoxy-3,4′-bipyridine-3′-carbonitrile as an antioxidant compound” (KING FAISAL UNIVERSITY, priority 2023, dated 2024).
